These results are taken from patent publication US8178659B2, “Targets for the identification of antibiotics that are not susceptible to antibiotic resistance” (priority 2005, dated 2012).

The structures appear in SMILES notation. In brackets after ≈: the same amount, converted by molar mass.

For this test, the system named is E. coli DH5 cells. The experiment in a line: Minimum inhibitory concentration (MIC) of chloramphenicol in the specialized ribosome (CAT reporter) system. In kind it is cell-based. As to conditions: Escherichia coli, DH5CELLS. From the text:
To examine the role of potential interactions within the 530 loop (FIG. 3.1) nucleotides involved in the proposed interactions were randomly mutated using PCR and cloned into pRNA16ST, a derivative of pRNA122 (Lee et al., 1996; Lee et al., 1997). pRNA 16ST contains only the 16 S rRNA from the rrnB operon rather then the entire operon. […] In this specialized in vivo system, the chloramphenicol acetyltransferase (CAT) reporter message is translated exclusively by plasmid-derived ribosomes that cannot translate normal cellular messages (Lee et al., 1996; Lee et al., 1997). Thus, the minimal inhibitory concentration (MIC) of chloramphenicol for each mutant is correlated to the level of function of the plasmid-derived ribosomes. This allows for the selection of functional mutants on chloramphenicol containing media. Survivors were then sequenced and assayed for function by determining the MIC for each mutant.
Minimum inhibitory concentration (MIC). MICs were determined by standard methods in microtiter plates. Overnight cultures grown in LB-Ap100 were diluted and induced in the same medium containing 1 mM IPTG for two to three hours at 37° C. Approximately 10^4 induced cells were then added to wells containing LB-Ap100+IPTG (1 mM) and chloramphenicol at increasing concentrations.

The MIC is the smallest concentration in the dilution series that meets the test's criterion for growth inhibition. Lower therefore signals inhibition by little substance. Take `O=C(N[C@H](CO)[C@H](O)c1ccc([N+](=O)[O-])cc1)C(Cl)Cl` [chloramphenicol]: the MIC is, setting by setting: (cells expressing wild-type ribosomes in the system (pRNA123)) 700 µg/mL (≈ 2170 µM); (uninduced wild-type plasmid (pRNA228) as well as a lethal clone) 15 µg/mL (≈ 46.4 µM).
